pIC50: −log10 of the molar value. Read-outs that look alike come from different tables or passages of the source.
Columns and labels:
[1] = system: multi-drug-resistant breast cancer cell line MDA-MB-231; test: Cell growth assay on MDA-MB-231 cells; type: cell-based; conditions: MDA-MB-231, breast carcinoma
Description: (§1) Compositions were tested on CHOP-resistant G3 NHL cells that had been cultivated in RPMI medium for five days. Prior to assay, the cells were counted by haemocytometer and cell concentration standardized to 625,000 cells/ml. Test drugs were solubilized in 100% DMSO and then diluted to final assay concentration with 0.1M phosphate buffered saline (PBS) and a final DMSO concentration of 0.5%. Cells were added to assay plates containing the test drugs (rifabutin+148 ng/ml, 74 ng/ml, 37 ng/ml, or 0 ng/ml doxorubicin) and allowed to incubate for 96 hours at 37° C. and 5% CO2. The metabolic dye rezasurin was added to the wells of the assay plate at a final concentration of 20 μg/ml and the plates were incubated for an additional 24 hours. The plates were then read in a BMG Polarstar plate reader at wavelength (573-605) and the data plotted as OD versus increasing dilutions (i.e. decreasing total amounts) of rifabutin derivative concentration.
(§2) In these experiments, the following cell lines were used: CHOP-resistant NHL cell line G3, CHOP-sensitive NHL cell line CRL2631, the multi-drug resistant sarcoma cell line MES-SA-Dx5; multi-drug-resistant breast cancer cell line MDA-MB-231, multi-drug resistant ovarian carcinoma cell line SK-OV3, multi-drug resistant ovarian cancer cell line NCI/ADR-RES, drug-sensitive ovarian cancer cell line OVCAR-5, and multi-drug resistant ovarian cancer cell line OVCAR-3.
(§3) Additional cell lines used include: ovarian cancer OVCAR-8, T lymphoblastoid leukemia MOLT-4, dexamethasone-resistant multiple myeloma MM.1R, myeloid leukemia cells HL-60, osteosarcoma cells U-2 OS, and myeloma RPMI 8226.

[2] = system: multi-drug resistant ovarian cancer cell line (NCI/ADR-RES); test: NCI/ADR-RES xenograft efficacy studies in nude mice; type: in vivo; conditions: DOXIL 7 mg/kg i.v. + RTI-79 25 mg/kg oral
Source text: In a sixth efficacy study, we generated xenografts of multi-drug resistant ovarian cancer cell line (NCI/ADR-RES) by implantation of NCI/ADR-RES cell xenografts in the left and right flanks of nude mice, resulting in two tumors per mice. […] Tumor size was monitored.
In a seventh efficacy study, we generated xenografts of multi-drug resistant ovarian cancer cell line (NCI/ADR-RES) by implantation of NCI/ADR-RES cells xenografts in the left and right flanks of nude mice, resulting in two tumors per mouse. […] Tumor size was monitored.

[3] = system: ROS in ADR-RES ovarian cells; test: Intracellular ROS (CellROX, flow cytometry) in ADR-RES cells; type: cell-based; conditions: 10 uM, 2 hrs
Source text: (§4) Cells were then stained with the fluorescent ROS indicator, CellROX, and subjected to flow cytometry to quantitate total intracellular ROS.

VEGF = VEGF secretion ELISA in U2-OS cells; type: cell-based; conditions: RTI-79, U2-OS cells; decrease from 998
[4] = system: multi-drug resistant ovarian cancer cell line NCI/ADR-RES; test: Cell growth assay on NCI/ADR-RES cells; type: cell-based; conditions: NCI/ADR-RES, ovarian carcinoma
Description: as §1, §2, §3

[5] = system: ROS in OVCAR8 ovarian cells; test: Intracellular ROS (CellROX, flow cytometry) in OVCAR8 cells; type: cell-based; conditions: 10 uM, 2 hrs, degree much less than in resistant lines
Source text: as §4

[6] = system: multi-drug resistant ovarian cancer cell line OVCAR-3; test: Cell growth assay on OVCAR-3 cells; type: cell-based; conditions: OVCAR-3, ovarian carcinoma
Description: as §1
(§5) In these experiments, the following cell lines were used: CHOP-resistant NHL cell line G3, CHOP-sensitive NHL cell line CRL2631, the multi-drug resistant sarcoma cell line MES-SA-Dx5; multi-drug-resistant breast cancer cell line MDA-MB-231, multi-drug resistant ovarian carcinoma cell line SK-OV3, multi-drug resistant ovarian cancer cell line NCI/ADR-RES, drug-sensitive ovarian cancer cell line OVCAR-5, and multi-drug resistant ovarian cancer cell line OVCAR-3. […]

[7] = mice treated with RTI-79 with or without DOX
Description: Swiss mice were dosed with levels equal to and exceeding that of intended doses.

ABCB1 pumps = ABCB1 pumps (Homo sapiens, UniProt P08183)
[8] = system: drug-sensitive ovarian cancer cell line OVCAR-5; test: Cell growth assay on OVCAR-5 cells; type: cell-based; conditions: OVCAR-5, ovarian carcinoma
Description: as §1, §2, §3

[9] = Time to maximal RTI-79 plasma concentration; type: in vivo; conditions: after administration
ROS in G3 lymphoma cells = test: Intracellular ROS (CellROX, flow cytometry) in G3 cells; type: cell-based, human
Description: as §4
The electron transport chain (ETC) is known to be a primary generator of ROS in the cell. Most of the ROS is generated by Complexes I and III of the ETC Inhibition of Complex I results in electrons piling up and leaking to react with oxygen to produce ROS.
(§6) All samples were analyzed at the same time in flow cytometry.

MMP2 = MMP2 secretion ELISA in U2-OS cells; type: cell-based; conditions: 5 uM RTI-79, U2-OS cells; reduced from 22.4
[10] = system: primary human fibroblasts; conditions: with and without 2 uM Dox
lymphoma cell line G3 = test: Cell growth assay (resazurin fluorescence) on CHOP-resistant G3 NHL cells; type: cell-based, human; conditions: for pIC50: read-out: IC50
Description: as §1

calcium in G3 cells = test: Calcium mobilization (Fluo-4AM, flow cytometry); type: cell-based, human
Description: MDR/P-gp activity is closely associated with calcium status in the cell, so calcium modulators were tested for effects on ROS. […] Relatively Dox-sensitive lymphoma (CRL2631, 10S, WSU) and ovarian carcinoma (OVCAR8) and more Dox-resistant lymphoma (G3R,10R, WSUR) and ovarian carcinoma (ADR) were treated with 10 uM […] for 2 hrs. […] Cells were co-stained with the cell-permeable red fluorescent ROS indicator, CellROX, and cell-permeable green fluorescent calcium indicator, Fluo-4AM, and then subjected to flow cytometry to quantitate changes in ROS and calcium levels.
as §6

[11] = system: multi-drug resistant sarcoma cell line MES-SA-Dx5; test: Cell growth assay on MES-SA-Dx5 cells; type: cell-based; conditions: MES-SA-Dx5, uterus sarcoma
Description: as §1, §2, §3

[12] = system: multi-drug resistant ovarian carcinoma cell line SK-OV3; test: Cell growth assay on SK-OV3 cells; type: cell-based, human
Description: as §1, §5

[13] = system: myeloid leukemia cells HL-60; test: Cell growth assay on HL-60 cells; type: cell-based
Description: as §1, §3

myeloma RPMI 8226 = test: Cell growth assay on RPMI 8226 cells; type: cell-based
Description: as §1, §3

ovarian cancer OVCAR-8 = test: Cell growth assay on OVCAR-8 cells; type: cell-based
Description: as §1, §3

[14] = system: osteosarcoma cells U-2 OS; test: Cell growth assay on U-2 OS cells; type: cell-based
Description: as §1, §3

[15] = Homo sapiens, therapeutic drug alone, read-out: IC50
[16] = Homo sapiens, therapeutic drug with Rifabutin, read-out: IC50 (μM) with Rifabutin

ABCB1 pumps, sequence (P08183 whole entry): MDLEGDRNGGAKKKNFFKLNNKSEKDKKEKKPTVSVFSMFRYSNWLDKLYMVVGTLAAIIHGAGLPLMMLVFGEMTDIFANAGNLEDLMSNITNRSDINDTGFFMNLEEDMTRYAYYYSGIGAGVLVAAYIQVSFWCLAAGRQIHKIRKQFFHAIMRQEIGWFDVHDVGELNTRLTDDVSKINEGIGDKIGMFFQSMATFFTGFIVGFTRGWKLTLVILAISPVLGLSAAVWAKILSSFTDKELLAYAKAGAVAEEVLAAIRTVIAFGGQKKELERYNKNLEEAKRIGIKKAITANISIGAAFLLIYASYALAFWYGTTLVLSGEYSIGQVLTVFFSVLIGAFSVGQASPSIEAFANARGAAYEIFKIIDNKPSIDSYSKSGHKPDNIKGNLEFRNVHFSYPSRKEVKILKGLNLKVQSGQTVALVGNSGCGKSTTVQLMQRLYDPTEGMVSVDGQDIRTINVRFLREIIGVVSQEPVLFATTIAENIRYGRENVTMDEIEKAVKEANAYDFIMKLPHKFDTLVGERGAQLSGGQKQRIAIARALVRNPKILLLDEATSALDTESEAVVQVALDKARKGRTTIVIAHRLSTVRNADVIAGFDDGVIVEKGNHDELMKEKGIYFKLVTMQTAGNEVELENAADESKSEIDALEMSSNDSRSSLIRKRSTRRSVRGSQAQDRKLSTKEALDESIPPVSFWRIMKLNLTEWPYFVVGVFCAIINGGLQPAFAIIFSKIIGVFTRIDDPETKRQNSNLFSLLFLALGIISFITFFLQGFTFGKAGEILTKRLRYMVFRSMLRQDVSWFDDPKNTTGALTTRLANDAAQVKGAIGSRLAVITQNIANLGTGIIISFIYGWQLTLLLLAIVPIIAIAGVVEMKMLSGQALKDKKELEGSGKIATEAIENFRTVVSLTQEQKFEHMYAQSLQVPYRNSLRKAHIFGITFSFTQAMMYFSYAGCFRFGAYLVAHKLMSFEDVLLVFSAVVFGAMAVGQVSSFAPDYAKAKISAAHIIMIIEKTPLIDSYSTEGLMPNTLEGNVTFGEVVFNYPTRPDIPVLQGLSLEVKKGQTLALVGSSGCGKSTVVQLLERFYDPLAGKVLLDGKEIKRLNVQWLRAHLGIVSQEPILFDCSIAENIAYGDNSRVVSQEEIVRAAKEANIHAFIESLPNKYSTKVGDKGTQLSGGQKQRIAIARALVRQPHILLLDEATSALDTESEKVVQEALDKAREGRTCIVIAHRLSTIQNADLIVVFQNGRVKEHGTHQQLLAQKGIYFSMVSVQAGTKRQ

## COC1C=COC2(C)Oc3c(C)c(O)c4c(c3C2=O)C2=NC3(CCN(C(=O)OCC(C)C)CC3)NC2=C(NC(=O)C(C)=CC=CC(C)C(O)C(C)C(O)C(C)C(OC(C)=O)C1C)C4=O (stereo not shown) [RTI-79, 4-deoxy-3,4[2-spiro-[1-(isobutyloxycarbonyl)-piperidin-4-yl]]-(1H)-imidazo-(2,5-dihydro)rifamycin S]
[1]
  Magnitude of potentiation in combination with doxorubicin: + (potentiation between 1.2 to 2.0 fold increase)
[2]; seventh study (multiple, large tumors), after 46 days
  tumor volume lower than in mice receiving only DOXIL: 55%
[2]; seventh study
  tumor volume reduction during the course of the study: 50%
[2]; sixth study, after 41 days
  tumor volume lower than in mice receiving only DOXIL: 66%
[3]
  total intracellular ROS: induced ROS
VEGF
  VEGF secretion: 436 pg/million cells
[4]
  Magnitude of potentiation in combination with doxorubicin: ++ (potentiation between 2.1 to 5 fold increase)
[5]
  total intracellular ROS: induced ROS
[6]
  Magnitude of potentiation in combination with doxorubicin: + (potentiation between 1.2 to 2.0 fold increase)
[7]
  heart histology (H&E), complete blood count and manual differential: no significant differences
ABCB1 pumps; NCI/ADR-RES and G3 cells
  inhibition of efflux pumps: clear inhibition of efflux pumps
ABCB1 pumps; calcein-AM efflux
  rank as inhibitor of ABCB1 among rifabutin derivatives: strongest inhibitor
[8]
  Magnitude of potentiation in combination with doxorubicin: + (potentiation between 1.2 to 2.0 fold increase)
[9]
  time to maximal plasma concentration: ≤ 3 h
ROS in G3 lymphoma cells; 10 uM RTI-79, 0 to 30 minutes
  time to first increase in ROS: 1 min
ROS in G3 lymphoma cells; 10 uM, 2 hrs
  total intracellular ROS: induced ROS
MMP2
  MMP2 secretion: 10.5 ng/million cells
[10]
  comparative cytotoxicity to normal cells: not toxic to normal cells
Lymphoma cell line G3; G3, lymphoma B cells
  Magnitude of potentiation in combination with doxorubicin: ++ (potentiation between 2.1 to 5 fold increase)
Lymphoma cell line G3; analog alone, lymphoma cell line G3
  pIC50: 4.37
Lymphoma cell line G3; with 1 μM doxorubicin, lymphoma cell line G3, read-out: IC50 (μM) with doxorubicin (1 μM)
  IC50: 1.14 µM
Calcium in G3 cells; Dox-resistant cells (G3R, 10R, WSUR), 10 uM, 2 hrs, FIG. 41B/41C
  calcium mobilization: induced both ROS and calcium mobilization
Calcium in G3 cells; G3 cells, 10 uM RTI-79, 0 to 30 minutes
  onset of calcium mobilization: > 15 min
[11]
  Magnitude of potentiation in combination with doxorubicin: ++ (potentiation between 2.1 to 5 fold increase)
[12]; SK-OV3, ovarian carcinoma
  Magnitude of potentiation in combination with doxorubicin: +++ (potentiation greater than 5 fold increase)

## CC(=O)O[C@H]1C(=O)[C@@]2(C)[C@H]([C@H](OC(=O)c3ccccc3)[C@]3(O)C[C@H](OC(=O)[C@H](O)[C@@H](NC(=O)c4ccccc4)c4ccccc4)C(C)=C1C3(C)C)[C@]1(OC(C)=O)CO[C@@H]1C[C@@H]2O [Paclitaxel, paclitaxel]
[13]; [15]
  pIC50: 6.40
[13]; [16]
  IC50: 0.2 µM
[13]; with vs without Rifabutin
  Fold increase in potency: 2 fold
Myeloma RPMI 8226; [15]
  pIC50: 6.00
Myeloma RPMI 8226; [16]
  IC50: 0.89 µM
Myeloma RPMI 8226; with vs without Rifabutin
  Fold increase in potency: 1.1 fold

## O=C1c2c(O)ccc(O)c2C(=O)c2c(NCCNCCO)ccc(NCCNCCO)c21 [Mitoxantrone, mitoxantrone]
Ovarian cancer OVCAR-8; [15]
  pIC50: 4.85
Ovarian cancer OVCAR-8; [16]
  IC50: 3 µM
Ovarian cancer OVCAR-8; with vs without Rifabutin
  Fold increase in potency: 4.7 fold
[14]; Homo sapiens, U2OS, therapeutic drug alone, read-out: IC50
  pIC50: 6.85
[14]; Homo sapiens, U2OS, therapeutic drug with Rifabutin, read-out: IC50 (μM) with Rifabutin
  IC50: 0.06 µM
[14]; with vs without Rifabutin
  Fold increase in potency: 2.3 fold
Lymphoma cell line G3; Homo sapiens, therapeutic drug alone, G3
  pIC50: 6.34
Lymphoma cell line G3; Homo sapiens, therapeutic drug with Rifabutin, G3, read-out: IC50 (μM) with Rifabutin
  IC50: 0.04 µM
Lymphoma cell line G3; with vs without Rifabutin, G3
  Fold increase in potency: 11.5 fold
[12]; Homo sapiens, SK-OV-3, therapeutic drug alone, SK-OV3, read-out: IC50
  pIC50: < 4.49
[12]; Homo sapiens, SK-OV-3, therapeutic drug with Rifabutin, SK-OV3, read-out: IC50 (μM) with Rifabutin
  IC50: 12.3 µM
[12]; with vs without Rifabutin, SK-OV3
  Fold increase in potency: >2.6 fold
